These results are taken from patent US20190367516A1 (Bayer Pharma Aktiengesellschaft, priority 2015, published 2019).

Molecules are shown by their SMILES. Read-outs that look alike come from different tables or passages of the source.

A word on the EC50: it is the concentration giving half of the maximal effect. A lower EC50 goes with a more potent agent.

For assay [1], the target named is T1, human M2 receptor (Homo sapiens, UniProt P08172).
T1 sequence (P08172 1-466): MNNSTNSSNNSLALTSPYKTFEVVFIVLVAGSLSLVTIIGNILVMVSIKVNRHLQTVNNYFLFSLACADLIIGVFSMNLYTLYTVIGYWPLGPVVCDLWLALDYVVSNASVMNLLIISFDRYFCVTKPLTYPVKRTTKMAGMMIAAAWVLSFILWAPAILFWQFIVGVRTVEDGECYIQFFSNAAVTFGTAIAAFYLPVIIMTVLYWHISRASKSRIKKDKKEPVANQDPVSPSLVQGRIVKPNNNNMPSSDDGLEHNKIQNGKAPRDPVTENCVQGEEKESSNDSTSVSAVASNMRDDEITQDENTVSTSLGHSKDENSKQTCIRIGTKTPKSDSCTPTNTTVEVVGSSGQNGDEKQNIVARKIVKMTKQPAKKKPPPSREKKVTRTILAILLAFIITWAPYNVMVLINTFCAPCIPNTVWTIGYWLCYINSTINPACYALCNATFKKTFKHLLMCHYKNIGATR
It is filed as cell-based. As to conditions: α >1 = positive cooperativity. The procedure:
B-1.2. Determination of Positive Cooperativity (α Factor)
In contrast to the EC50 determination of the test substances (see B-1.1), however, this is not done using one acetylcholine concentration; instead, every concentration of the test substance is combined with an acetylcholine 8-point dose-response curve. […] The shift in the acetylcholine dose-response curve in the presence of increasing concentrations of the test substance is analysed and quantified by means of GraphPad PRISM (Allosteric EC50 shift). […] Positive cooperativity is the hallmark of a positive allosteric modulator. […] The greater the magnitude of the α value, the greater the extent of cooperativity between orthosteric and allosteric.

For assay [2], the target named is T1, human M2 receptor. To be noted: for Efficiency: boosting of the acetylcholine effect at EC20 acetylcholine concentration.
Description: Functional M2-GIRK1/4 Activation Test
The binding of orthosteric agonists (endogenous ligand: acetylcholine) to the M2 receptor leads to receptor activation or a change in conformation of the receptor in the manner of a shift in equilibrium in favour of the active receptor conformation.
The agonist-induced change in conformation of the M2 receptor results in a Gαi protein activation. […] Under physiological conditions, the result is then a selective efflux of potassium from the cell along the electrochemical gradient. […] The extent of hyperpolarization can therefore be regarded as a measure of the activation of the M2 receptor.
The test cell used is a recombinant CHO-DUKX cell line which has been stably transfected with cDNA coding for the human M2 receptor and with cDNA coding for both GIRK1/4 subunits (CHO-DUKX-M2-GIRK). The transmembrane potential, or the relative changes in the transmembrane potential as a function of substance addition or M2 activation, is determined by means of a voltage-sensitive dye (FLIPR Membrane Potential Assay Kit Blue, Molecular Devices # R8034) and the measurement of cell fluorescence using a proprietary fluorescence imaging instrument.
Determination of the Allosteric Potency of the Test Substances (EC50 Value)
The sowing medium consisted of MEM alpha medium (supplemented with 5% FCS, 2% Glutamax, no genticin).
For the particular measurement, the medium was removed and the cells were laden with the voltage-sensitive dye for at least 6 min at room temperature (30 μl of loading buffer per 384-well). This was followed, in a first measurement, by the determination of the fluorescence for the resting transmembrane potential for a period of 5 sec. Thereafter, 10 μl in each case of the test substances diluted in loading buffer were added, followed by a second measurement to determine the transmembrane potential for a period of 50 sec. Finally, the cells were admixed with 10 μl of agonist solution (acetylcholine dissolved in loading buffer). Acetylcholine was used at the concentration corresponding to the EC20, which had been determined in a preliminary test. The M2-mediated GIRK1/4 activation or hyperpolarization was then monitored in a third measurement over a period of 60 sec. The EC50 value (degree of allosteric potency of test compound) and the efficiency (measure of the boosting of the acetylcholine effect at an EC20 acetylcholine concentration) were determined with the aid of a 4-parameter logistic function (Hill function).
Where [3] appears, read: shift of acetylcholine dose-response curve (Allosteric EC50 shift).
Where [4] appears, read: Receptor activity EC50, allosteric potency at EC20 acetylcholine, M2-GIRK1/4 reporter cells, in some cases mean of two or more determinations.
[5] abbreviates: read-out: Efficiency, boosting of the acetylcholine effect at EC20 acetylcholine concentration, M2-GIRK1/4 reporter cells.
[6] abbreviates: shift in the acetylcholine dose-response curve (Allosteric EC50 shift, GraphPad PRISM).
The mark [7] stands for this setting: Receptor activity EC50, M2-GIRK1/4 activation test, acetylcholine at EC20, allosteric potency, in some cases mean values from two or more determinations.

Take `CC(NC(=O)c1cn(-c2c(F)cc(F)cc2F)c2nc(N3C[C@@H](O)CC3=O)ccc2c1=O)(C1CC1)C(F)(F)F` (single isomer, unassigned) [Example 510]: in assay [1] (setting [3]), the “Cooperativity (alpha factor)” value was 46. The compound further came in with an EC50 in assay [2] (setting [4]) of 0.006 µM. This compound gave an Efficiency in assay [2] (M2-GIRK1/4 reporter cells) of 94.0%.

Turning to `COC(=O)N1CCN(c2ccc3c(=O)c(C(=O)Nc4c(Cl)cccc4Cl)cn(-c4c(F)cc(F)cc4F)c3n2)CC1` [Example 593, Methyl 4-{6-[(2,6-dichlorophenyl)carbamoyl]-5-oxo-8-(2,4,6-trifluorophenyl)-5,8-dihydro-1,8-naphthyridin-2-yl}piperazine-1-carboxylate], the “Cooperativity (alpha factor)” value in assay [1] (setting [3]) was determined as 29. The compound also gave a 50% effective concentration (EC50) in assay [2] (setting [4]) of 0.017 µM. Further, the Emax in assay [2] (setting [5]) worked out at 89.5%.

As for `O=C(NC12CC3CC(CC(C3)C1)C2)c1cn(-c2ccc(F)cc2F)c2nc(N3CCC(O)(O)C(F)(F)C3)ccc2c1=O` [Example 6, 7-(3,3-Difluoro-4,4-dihydroxypiperidin-1-yl)-1-(2,4-difluorophenyl)-4-oxo-N-(tricyclo[3.3.1.1^3,7]dec-1-yl)-1,4-dihydro-1,8-naphthyridine-3-carboxamide], in assay [1] (setting [6]), the “Cooperativity (alpha factor)” value amounted to 15. In addition, in assay [2] (setting [7]), the EC50 is 0.034 µM.

Turning to `O=C(NC12CC3CC(CC(C3)C1)C2)c1cn(-c2ccc(F)cc2F)c2nc(N3CC(F)CC3=O)ccc2c1=O` (centres unmarked) [Example 187, 1-(2,4-Difluorophenyl)-7-[4-fluoro-2-oxopyrrolidin-1-yl]-4-oxo-N-(tricyclo[3.3.1.1^3,7]dec-1-yl)-1,4-dihydro-1,8-naphthyridine-3-carboxamide], the “Cooperativity (alpha factor)” value in assay [1] (setting [6]) turned out to be 10. This compound gave an EC50 in assay [2] (setting [7]) of 0.098 µM.

Consider `CC[C@@H](NC(=O)c1cn(-c2ccc(F)cc2F)c2nc(N3CC4CC4(O)C3)ccc2c1=O)C(F)(F)F` (mixture of isomers) [Example 267, 1-(2,4-Difluorophenyl)-7-[1-hydroxy-3-azabicyclo[3.1.0]hex-3-yl]-4-oxo-N-[(2R)-1,1,1-trifluorobutan-2-yl]-1,4-dihydro-1,8-naphthyridine-3-carboxamide], for which the “Cooperativity (alpha factor)” value in assay [1] (setting [6]) is 28. The compound further came in with an EC50 in assay [2] (setting [7]) of 0.024 µM.

In the case of `CC[C@H](NC(=O)c1cn(-c2ccc(F)cc2F)c2nc(N3C[C@H](O)CC3=O)ccc2c1=O)C(F)(F)F` [Example 285, 1-(2,4-Difluorophenyl)-7-[(4R)-4-hydroxy-2-oxopyrrolidin-1-yl]-4-oxo-N-[(2S)-1,1,1-trifluorobutan-2-yl]-1,4-dihydro-1,8-naphthyridine-3-carboxamide], the “Cooperativity (alpha factor)” value in assay [1] (setting [6]) was 23. The compound also showed an EC50 in assay [2] (setting [7]) of 0.598 µM. The Emax in assay [2] (read-out: Efficiency) is 79.9%.

For `N#CC1CCCN(c2ccc3c(=O)c(C(=O)NC45CC6CC(CC(C6)C4)C5)cn(-c4ccc(F)cc4F)c3n2)C1` (centres unmarked) [Example 10, 7-(3-Cyanopiperidin-1-yl)-1-(2,4-difluorophenyl)-4-oxo-N-(tricyclo[3.3.1.1^3,7]dec-1-yl)-1,4-dihydro-1,8-naphthyridine-3-carboxamide], the “Cooperativity (alpha factor)” value in assay [1] (setting [6]) amounted to 12. For the same compound, the response in assay [2] (setting [7]) was half-maximal at 0.06 µM (EC50).

For `CCC(NC(=O)c1cn(-c2ccc(F)cc2F)c2nc(N3CCC(O)C3)ccc2c1=O)C(F)(F)F` (stereo in doubt) [Example 218, 1-(2,4-Difluorophenyl)-7-[3-hydroxypyrrolidin-1-yl]-4-oxo-N-[(2S)-1,1,1-trifluorobutan-2-yl]-1,4-dihydro-1,8-naphthyridine-3-carboxamide], the “Cooperativity (alpha factor)” value in assay [1] (setting [6]) worked out at 33. The EC50 in assay [2] (setting [7]) turned out to be 0.153 µM.

In the case of `CC[C@@H](NC(=O)c1cn(-c2ccc(F)cc2F)c2nc(N3CC(O)(C(F)(F)F)C3)ccc2c1=O)C(F)(F)F` [Example 262, 1-(2,4-Difluorophenyl)-7-[3-hydroxy-3-(trifluoromethyl)azetidin-1-yl]-4-oxo-N-[(2R)-1,1,1-trifluorobutan-2-yl]-1,4-dihydro-1,8-naphthyridine-3-carboxamide], in assay [1] (setting [6]), the “Cooperativity (alpha factor)” value worked out at 27. In assay [2] (setting [7]), the EC50 was found to be 0.072 µM.

With `O=C(N[C@@H](C1CC1)C(F)(F)F)c1cn(-c2c(F)cc(F)cc2F)c2nc(N3CCN(CCO)C3=O)ccc2c1=O` [Example 363, N-[(1 S)-1-Cyclopropyl-2,2,2-trifluoroethyl]-7-[3-(2-hydroxyethyl)-2-oxoimidazolidin-1-yl]-4-oxo-1-(2,4,6-trifluorophenyl)-1,4-dihydro-1,8-naphthyridine-3-carboxamide], the “Cooperativity (alpha factor)” value in assay [1] (setting [6]) is given as 28. In assay [2] (setting [7]), this compound gave an EC50 of 0.045 µM.

In the case of `CC[C@H](NC(=O)c1cn(-c2c(F)cccc2F)c2nc(N3C[C@@H](O)CC3=O)ccc2c1=O)C(F)(F)F` [Example 333, 1-(2,6-Difluorophenyl)-7-[(4S)-4-hydroxy-2-oxopyrrolidin-1-yl]-4-oxo-N-[(2S)-1,1,1-trifluorobutan-2-yl]-1,4-dihydro-1,8-naphthyridine-3-carboxamide], the “Cooperativity (alpha factor)” value in assay [1] (setting [6]) worked out at 28. The EC50 in assay [2] (setting [7]) came to 0.031 µM. For the same compound, the Emax in assay [2] (read-out: Efficiency) came out at 94.5%.

Regarding `O=C(NC(c1ccccc1Cl)C(F)(F)F)c1cn(-c2c(F)cc(F)cc2F)c2nc(N3C[C@@H](O)[C@H](O)C3)ccc2c1=O` (single isomer, unassigned) [Example 562], the “Cooperativity (alpha factor)” value in assay [1] (setting [3]) came out at 40. A half-maximal effect in assay [2] (setting [4]) (EC50) was put at 0.01 µM. This compound also yielded an Efficiency in assay [2] (M2-GIRK1/4 reporter cells) of 100.0%.

`CCC(NC(=O)c1cn(-c2ccc(F)cc2F)c2nc(N3CCN(C(=O)OC)CC3)ccc2c1=O)C(F)(F)F` (single isomer, unassigned; enantiomer a) [Example 24, ent-Methyl 4-{8-(2,4-difluorophenyl)-5-oxo-6-[(1,1,1-trifluorobutan-2-yl)carbamoyl]-5,8-dihydro-1,8-naphthyridin-2-yl}piperazine-1-carboxylate (Enantiomer A)]: the “Cooperativity (alpha factor)” value in assay [1] (setting [6]) came out at 25. In assay [2] (setting [7]), this compound registered an EC50 of 0.063 µM.

With `CC(C)(NC(=O)c1cn(-c2c(F)cc(F)cc2F)c2nc(N3CC[C@@H](O)C3=O)ccc2c1=O)C(F)(F)F` [Example 488, 7-[(3R)-3-Hydroxy-2-oxopyrrolidin-1-yl]-4-oxo-N-(1,1,1-trifluoro-2-methylpropan-2-yl)-1-(2,4,6-trifluorophenyl)-1,4-dihydro-1,8-naphthyridine-3-carboxamide], the “Cooperativity (alpha factor)” value in assay [1] (setting [3]) was determined as 53. Besides, the EC50 in assay [2] (setting [4]) was determined as 0.024 µM. The Emax in assay [2] (setting [5]) turned out to be 96%.

As to `CC12CCC(NC(=O)c3cn(-c4ccc(F)cc4F)c4nc(N5CC[C@@H](O)C5)ccc4c3=O)(CC1)CC2` [Example 20, 1-(2,4-Difluorophenyl)-7-[(3R)-3-hydroxypyrrolidin-1-yl]-N-(4-methylbicyclo[2.2.2]oct-1-yl)-4-oxo-1,4-dihydro-1,8-naphthyridine-3-carboxamide], in assay [1] (setting [6]), the “Cooperativity (alpha factor)” value was found to be 34. The EC50 in assay [2] (setting [7]) came out at 0.042 µM.

Turning to `O=C(NC(C(F)(F)F)C(F)(F)F)c1cn(-c2ccc(F)cc2F)c2nc(N3CC[C@H](F)C3)ccc2c1=O` [Example 70, 1-(2,4-Difluorophenyl)-7-[(3S)-3-fluoropyrrolidin-1-yl]-N-(1,1,1,3,3,3-hexafluoropropan-2-yl)-4-oxo-1,4-dihydro-1,8-naphthyridine-3-carboxamide], the “Cooperativity (alpha factor)” value in assay [1] (setting [6]) was found to be 29. In assay [2] (setting [7]), the midpoint of the response, the EC50, lay at 0.076 µM.

Consider `CC[C@@H](NC(=O)c1cn(-c2ccc(F)cc2F)c2nc(N3CCC(O)(O)C(F)(F)C3)ccc2c1=O)C(F)(F)F` [Example 35, 7-(3,3-Difluoro-4,4-dihydroxypiperidin-1-yl)-1-(2,4-difluorophenyl)-4-oxo-N-[(2R)-1,1,1-trifluorobutran-2-yl]-1,4-dihydro-1,8-naphthyridine-3-carboxamide], for which the “Cooperativity (alpha factor)” value in assay [1] (setting [6]) was determined as 24. Moreover, the EC50 in assay [2] (setting [7]) is 0.062 µM.

`CC[C@@H](NC(=O)c1cn(-c2c(F)cccc2Cl)c2nc(N3CC4CC4(O)C3)ccc2c1=O)C(F)(F)F` (mixture of isomers) [Example 310, 1-(2-Chloro-6-fluorophenyl)-7-[1-hydroxy-3-azabicyclo[3.1.0]hex-3-yl]-4-oxo-N-[(2R)-1,1,1-trifluorobutan-2-yl]-1,4-dihydro-1,8-naphthyridine-3-carboxamide]: the “Cooperativity (alpha factor)” value in assay [1] (setting [6]) is 21. For the same compound, the midpoint of the response in assay [2] (setting [7]), the EC50, lay at 0.014 µM.

As for `CN(C)c1ccc2c(=O)c(C(=O)NC34CC5CC(C3)C(F)(F)C(C5)C4)cn(-c3ccc(F)cc3F)c2n1` [Example 39, 1-(2,4-Difluorophenyl)-N-(4,4-difluorotricyclo[3.3.1.1^3,7]dec-1-yl)-7-(dimethylamino)-4-oxo-1,4-dihydro-1,8-naphthyridine-3-carboxamide], the “Cooperativity (alpha factor)” value in assay [1] (setting [6]) is recorded as 14. In assay [2] (setting [7]), this compound had a half-maximal effective concentration (EC50) of 0.088 µM.
